Drawing on patent US20220041606A1, “POSITIVE ALLOSTERIC MODULATORS OF THE MUSCARINIC ACETYLCHOLINE RECEPTOR M1” (Vanderbilt University, priority 2020, published 2022), this text covers EC50 and Emax for 8 molecules.

The structures appear in SMILES notation.

Experiment [1] deals with T1, human mAChR M1 (Homo sapiens, UniProt P11229).
T1 construct: host or cells: CHO-K1 cells (ATCC), stably transfected using Lipofectamine2000
T1 sequence (P11229 1-460): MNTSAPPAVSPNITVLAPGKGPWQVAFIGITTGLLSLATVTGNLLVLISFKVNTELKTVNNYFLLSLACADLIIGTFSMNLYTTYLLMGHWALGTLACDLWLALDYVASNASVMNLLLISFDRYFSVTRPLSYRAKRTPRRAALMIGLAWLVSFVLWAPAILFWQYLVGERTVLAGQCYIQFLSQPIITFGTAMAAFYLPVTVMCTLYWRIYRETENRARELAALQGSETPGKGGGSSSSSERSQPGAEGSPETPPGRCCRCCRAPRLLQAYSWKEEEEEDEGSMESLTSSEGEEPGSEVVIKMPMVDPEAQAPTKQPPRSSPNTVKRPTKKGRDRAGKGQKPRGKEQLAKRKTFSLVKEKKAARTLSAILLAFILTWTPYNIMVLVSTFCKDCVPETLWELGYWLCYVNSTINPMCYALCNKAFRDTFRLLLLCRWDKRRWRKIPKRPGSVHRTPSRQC
Description: mAChR M1 cell-based functional assay (calcium mobilization), agonist activity upon compound addition. Conditions: CHO-K1 cells expressing hM1; for EC50: compound alone, before acetylcholine addition; for Emax: relative to the maximum for acetylcholine. In short, it runs like this:
(§1)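 Fluorescence ratio calcium read-out (Fluo-4 AM, FDSS 6000) in human M1-expressing CHO-K1 cells. Agonist activity taken as concentration-dependent rise after compound addition; potentiation as enhancement of a subsequent EC20 acetylcholine challenge. Curves from 11-point threefold dilutions fitted by four-parameter logistic; Emax expressed versus acetylcholine maximum.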

Experiment [2] has as its target T1, human mAChR M1. Kind of experiment: mAChR M1 cell-based functional assay (calcium mobilization), PAM activity: increase in the EC20 acetylcholine response. Conditions: CHO-K1 cells expressing hM1; potentiation of EC20 acetylcholine response. In short, it runs like this:
as §1

In the case of `Cc1nc(-c2ccc(Cn3cc(C(=O)N[C@H]4CCCC[C@@H]4O)c4ncccc4c3=O)cc2)co1` [Compound A20, N-((1S,2S)-2-hydroxycyclohexyl)-6-(4-(2-methyloxazol-4-yl)benzyl)-5-oxo-5,6-dihydro-1,6-naphthyridine-8-carboxamide], the EC50 is above 10 µM in experiment [1] and 0.78 µM in experiment [2]. Further, the Emax in experiment [1] was below 5%; in experiment [2], 63%.

Regarding `Cn1ccc(-c2ccc(Cn3cc(C(=O)N[C@@H]4CC[C@H]4O)c4ncccc4c3=O)c(F)c2)n1` [Compound A4, 6-(2-fluoro-4-(1-methyl-1H-pyrazol-3-yl)benzyl)-N-((1R,2R)-2-hydroxycyclobutyl)-5-oxo-5,6-dihydro-1,6-naphthyridine-8-carboxamide], in experiment [1], the EC50 is above 10 µM and the Emax was below 5%. Also, in experiment [2], the EC50 stood at 3.45 µM and the Emax was found to be 42%.

As to `Cn1cc2c(-c3cc(F)c(Cn4cc(C(=O)N[C@H]5CCOC[C@@H]5O)c5ncccc5c4=O)c(F)c3)cccc2n1` [Compound A21, 6-(2,6-difluoro-4-(2-methyl-2H-indazol-4-yl)benzyl)-N-((3R,4S)-3-hydroxytetrahydro-2H-pyran-4-yl)-5-oxo-5,6-dihydro-1,6-naphthyridine-8-carboxamide], in experiment [1], the EC50 was found to be 1.23 µM and the Emax came to 31%. In experiment [2], the concentration giving a half-maximal response (EC50) was determined as 0.019 µM and the Emax is 72%.

Regarding `Cn1cc(-c2ccc(Cn3cc(C(=O)N[C@H]4CCC[C@@H]4O)c4ncccc4c3=O)cn2)cn1` [Compound A17, N-((1S,2S)-2-hydroxycyclopentyl)-6-((6-(1-methyl-1H-pyrazol-4-yl)pyridin-3-yl)methyl)-5-oxo-5,6-dihydro-1,6-naphthyridine-8-carboxamide], in experiment [1], the EC50 was above 10 µM and the Emax was below 5%. Further, in experiment [2], the EC50 was at least 10 µM and the Emax was 55%.

`Cc1cncc(-c2cc(F)c(Cn3cc(C(=O)N[C@H]4CCCC[C@@H]4O)c4ncccc4c3=O)c(F)c2)c1` [Compound A43, 6-(2,6-difluoro-4-(5-methylpyridin-3-yl)benzyl)-N-((1S,2S)-2-hydroxycyclohexyl)-5-oxo-5,6-dihydro-1,6-naphthyridine-8-carboxamide]: the values for the EC50 in experiment [1] and in experiment [2] were above 10 µM and 0.64 µM, respectively. For the same molecule, the Emax in experiment [1] was below 5%; in experiment [2], 51%.

For the molecule `Cn1cc(-c2ccc(Cn3cc(C(=O)N[C@H]4CCCC[C@@H]4O)c4ncncc4c3=O)c(F)c2)cn1` [Compound A89, 6-(2-fluoro-4-(1-methyl-1H-pyrazol-4-yl)benzyl)-N-((1S,2S)-2-hydroxycyclohexyl)-5-oxo-5,6-dihydropyrido[4,3-d]pyrimidine-8-carboxamide], in experiment [1], the EC50 was above 10 µM and the Emax is below 5%. Moreover, in experiment [2], the EC50 is at least 10 µM and the Emax came to 51%.

Take `Cn1cc2c(-c3cc(F)c(Cn4cc(C(=O)N[C@H]5CCCCC[C@@H]5O)c5occc5c4=O)c(F)c3)cccc2n1` [Compound D22, 5-(2,6-difluoro-4-(2-methyl-2H-indazol-4-yl)benzyl)-N-((1S,2S)-2-hydroxycycloheptyl)-4-oxo-4,5-dihydrofuro[3,2-c]pyridine-7-carboxamide]: in experiment [1], the EC50 was above 10 µM and the Emax was 9%. Also, in experiment [2], the half-maximal effective concentration (EC50) came out at 0.95 µM and the Emax came out at 81%.

Take `Cn1nccc1-c1cc(F)c(Cn2cc(C(=O)N[C@H]3CCOC[C@@H]3O)c3ncccc3c2=O)c(F)c1` [Compound A47, 6-(2,6-difluoro-4-(1-methyl-1H-pyrazol-5-yl)benzyl)-N-((3R,4S)-3-hydroxytetrahydro-2H-pyran-4-yl)-5-oxo-5,6-dihydro-1,6-naphthyridine-8-carboxamide]: in experiment [1], the EC50 is above 10 µM and the Emax is below 5%. In addition, in experiment [2], the EC50 came to 1.09 µM and the Emax came to 57%.
